In paper PMC6264278, “Corydaline Inhibits Multiple Cytochrome P450 and UDP-Glucuronosyltransferase Enzyme Activities in Human Liver Microsomes” (Molecules, 2011):
Where two headings read alike, the source gives them in different places.

Legend:
CYP2C19 = molecular target: T1, CYP2C19 (Homo sapiens, UniProt P33261); assay: CYP2C19 S-mephenytoin 4'-hydroxylation inhibition in pooled human liver microsomes; format: in vitro ADME; conditions: for IC50: 100 μM S-mephenytoin, mean ± SD, n = 3
T1 construct: using pooled human liver microsomes; tissue BD Gentest Co. H161; host or cells: pooled human liver microsomes
Description: (§1) Phenacetin O-deethylase, coumarin 7-hydroxylase, amodiaquine N-deethylase, diclofenac 4-hydroxylase, S-mephenytoin 4-hydroxylase, bufuralol hydroxylase, and midazolam 1’-hydroxylase activities were determined as probe activities for CYP1A2, CYP2A6, CYP2C8, CYP2C9, CYP2C19, CYP2D6, and CYP3A4, respectively, using cocktail incubation and liquid chromatography-tandem mass spectrometry (LC/MS/MS). The incubation mixtures were prepared in a total volume of 200 μL, as follows: pooled human liver microsomes (0.25 mg/mL), 1.3 mM NADPH, 3.3 mM MgCl2, 50 mM potassium phosphate buffer (pH 7.4), and a cocktail of probe substrates and various concentrations of corydaline (1−200 μM). The substrates were used at concentrations approximately equal to their respective Km values: 50 μM phenacetin, 2.5 μM coumarin, 2.5 μM amodiaquine, 10 μM diclofenac, 100 μM S-mephenytoin, 5 μM bufuralol, and 2.5 μM midazolam. After a 3-min pre-incubation period at 37 °C, the reactions were initiated by addition of an NADP generating system and incubated for 20 min at 37 °C in a shaking water bath. After incubation, the reaction was stopped by placement of the tubes on ice and addition of 100 μL of ice-cold methanol containing internal standards (^13C2,^15N-acetaminophen for acetaminophen and N-desethylamodiaquine, d5-7-hydroxycoumarin for 7-hydroxycoumarin, ^13C6-4-hydroxydiclofenac for 4-hydroxydiclofenac, d3-4-hydroxy-mephenytoin for 4-hydroxymephenytoin and hydroxymidazolam, d9-1-hydroxybufuralol for 1-hydroxybufuralol). The incubation mixtures were then centrifuged at 13,000 × g for 5 min. All incubations were performed in triplicate and the mean values were used. […] The reaction was started by addition of a cocktail of CYP probe substrates.
All 7 metabolites produced from the cocktail of CYP isoform-specific substrates were simultaneously determined by LC/MS/MS [25]. The system consisted of a tandem quadrupole mass spectrometer (TSQ Quantum Access, ThermoFisher Scientific, San Jose, CA, USA) coupled with a Nanospace SI-2 LC system. […] Quantification was performed by selected reaction monitoring (SRM) of the [M+H]^+ ion and the related product ion for each metabolite. […]
Reactions were initiated by addition of NADPH at 37 °C and stopped after 15 min by placement of the incubation tubes on ice and addition of ice-cold methanol (100 μL) containing an internal standard (2.0 μg/mL ^13C6-4-hydroxydiclofenac for diclofenac, 0.5 μg/mL d3-4-hydroxymephenytoin for mephenytoin, or 0.5 μg/mL d9-1-hydroxy-bufuralol for bufuralol). The incubation mixtures were centrifuged at 13,000 × g for 5 min, and aliquots (5 μL) of the supernatants were analyzed by LC/MS/MS. […] Aliquots (5 μL) were analyzed by LC/MS/MS. […]

CYP3A = molecular target: T2, CYP3A (Homo sapiens, UniProt P08684); assay: CYP3A midazolam 1'-hydroxylation inhibition, cocktail assay in pooled human liver microsomes; format: in vitro ADME; conditions: 2.5 μM midazolam
T2 construct: using pooled human liver microsomes; tissue BD Gentest Co. H161; host or cells: pooled human liver microsomes
Description: as §1
All 7 metabolites produced from the cocktail of CYP isoform-specific substrates were simultaneously determined by LC/MS/MS [25]. […] Quantification was performed by selected reaction monitoring (SRM) of the [M+H]^+ ion and the related product ion for each metabolite. […]

T2 sequence (P08684 2-503): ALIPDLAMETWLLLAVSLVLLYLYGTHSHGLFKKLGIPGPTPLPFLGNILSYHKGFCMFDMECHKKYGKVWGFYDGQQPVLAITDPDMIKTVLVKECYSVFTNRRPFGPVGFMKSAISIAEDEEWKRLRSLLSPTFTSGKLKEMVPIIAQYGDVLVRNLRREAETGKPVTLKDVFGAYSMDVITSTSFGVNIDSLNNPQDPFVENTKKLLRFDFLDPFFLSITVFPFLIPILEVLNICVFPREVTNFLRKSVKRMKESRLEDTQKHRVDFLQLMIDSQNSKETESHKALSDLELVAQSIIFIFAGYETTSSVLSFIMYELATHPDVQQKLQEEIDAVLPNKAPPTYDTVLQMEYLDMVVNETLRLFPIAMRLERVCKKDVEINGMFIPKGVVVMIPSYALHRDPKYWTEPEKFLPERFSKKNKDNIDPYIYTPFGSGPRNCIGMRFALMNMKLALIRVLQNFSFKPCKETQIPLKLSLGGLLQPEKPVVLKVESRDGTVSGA
T1 sequence (P33261 whole entry): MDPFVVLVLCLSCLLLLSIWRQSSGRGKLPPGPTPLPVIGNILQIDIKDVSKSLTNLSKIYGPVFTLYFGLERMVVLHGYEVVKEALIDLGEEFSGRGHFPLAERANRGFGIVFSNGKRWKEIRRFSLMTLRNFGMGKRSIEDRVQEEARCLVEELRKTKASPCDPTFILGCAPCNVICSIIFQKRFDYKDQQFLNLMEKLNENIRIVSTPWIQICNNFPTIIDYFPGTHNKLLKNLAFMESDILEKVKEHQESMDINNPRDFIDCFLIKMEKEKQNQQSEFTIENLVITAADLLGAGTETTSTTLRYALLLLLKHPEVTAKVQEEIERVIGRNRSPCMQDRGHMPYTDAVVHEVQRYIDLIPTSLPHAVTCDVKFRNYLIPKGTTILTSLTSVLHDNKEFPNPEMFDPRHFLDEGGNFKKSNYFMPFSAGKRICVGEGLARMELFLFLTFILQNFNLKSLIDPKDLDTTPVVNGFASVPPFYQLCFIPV

**Q.** `COc1cc2c(cc1OC)C1C(C)c3ccc(OC)c(OC)c3CN1CC2` (stereo not shown) [Corydaline, 2,3,9,10-tetramethoxy-13-methyl-5,8,13,13a-tetrahydro-6H-isoquino[3,2-a]isoquinoline] was tested. Which “inhibition mode, CYP2C19 S-mephenytoin 4'-hydroxylation” value (CYP2C19; Lineweaver, Dixon and secondary reciprocal plots) did it give?
**A.** competitive

**Q.** What about the Ki (CYP2C19; human liver microsomes, 10-40 μM S-mephenytoin) of the same molecule?
**A.** 1.7 ± 0.5 µM

**Q.** And the IC50 (CYP2C19; pooled human liver microsomes (H161), read-out: IC50 no preincubation, CYP2C19 S-mephenytoin 4'-hydroxylation)?
**A.** 11.7 ± 1.4 µM

**Q.** And the IC50 (CYP2C19; pre-incubated 30 min with NADPH, read-out: IC50 with preincubation, CYP2C19 S-mephenytoin 4'-hydroxylation)?
**A.** 19.2 ± 1.8 µM

**Q.** And the “IC50 no preincubation, CYP3A midazolam 1'-hydroxylation” value (CYP3A; pooled human liver microsomes (H161))?
**A.** negligible inhibition

**Q.** What about the IC50 (CYP3A; pooled human liver microsomes (H161), read-out: IC50 no preincubation, CYP3A midazolam 1'-hydroxylation) of the same molecule?
**A.** > 200 µM

**Q.** And the IC50 (CYP3A; pre-incubated 30 min with NADPH, mean ± SD, n = 3, read-out: IC50 with preincubation, CYP3A midazolam 1'-hydroxylation)?
**A.** 67.4 ± 9.8 µM
